Experimental data published in patent publication US4250259A, “Microbiological production of ketones from C3 -C6 secondary alcohols” (priority 1979, dated 1981).

Experiments:
[1] = test system: Pseudomonas MS ATTC 25262 (Facultative); assay: sec-alcohols to ketones by resting cell suspensions; type: cell-based; conditions: methanol-grown cells
Experimental: (§1) The pH of the nutrient medium was adjusted to 7.0 by the addition of acid or base and 50 ml. samples of the nutrient medium were charged into a plurality of 300 ml. shaker flasks. The shaker flasks were inoculated with an inoculating loop of cells from an agar plate containing homogeneous colonies of the microorganisms on the plate (the purity of the isolates was confirmed by microscopic examination). The isolates had been maintained on methanol (0.4% V/V) agar plates or on agar plates under an atmosphere of methane and air having a 1:1 V/V gas ratio which had been transferred every two weeks. For growth on methanol, the medium was supplemented with 0.4% methanol. For growth on methane, the gaseous phase of the inoculated flasks was replaced with a gas mixture comprised of methane and air having a ratio of 1:1 on a V/V basis. The inoculated flasks were sealed air-tight and were incubated on a rotary shaker of orbital radius 2.5 cm. at 250 rpm and at 30° C. for two days until turbidity in the medium had developed. The cells were harvested by centrifugation at 10,000×g. at 4° C. for 30 minutes. The cell pellet was washed twice with a 0.05 M phosphate buffer at a pH of 7.0 (containing 0.02 M MgCl2). The washed cells were then suspended in a 0.05 M phosphate buffer at pH 7.0.
(§2) A 0.5 ml. sample of each washed cell suspension (2 mg. cells) was put into 10 ml. vials at 4° C. which were sealed with a rubber cap. The gaseous phase of the vials was removed with vacuum and then was replaced with a gas mixture of the substrate reactant (i.e., alkane or secondary alcohol) and oxygen at a 1:1 V/V ratio. (In the case of a liquid substrate, i.e., secondary alcohol, 10 μl of the substrate was put in the 10 ml. vials). […] Samples of product (1-3 μl) were withdrawn periodically with a microsyringe and the products were analyzed by gas chromatography (ionization flame detector column).
(§3) The procedure in Example 1 was repeated except that a plurality of methanol-utilizing methylotrophic microorganisms were each aerobically grown in a methanol-containing nutrient medium instead of a methane-containing medium. The nutrients in the medium were the same as indicated in Example 1 except that 0.4% V/V methanol was used as the alcohol dehydrogenase inducer and as the major carbon and energy source for growth. The cells were harvested and washed as described in Example 1. The resting microbial cells of the induced methanol-grown methanol-utilizing methylotrophic microorganisms were then contacted with C3 -C6 secondary alcohols in a buffered solution by the procedure of Example 1.

[2] = test system: Pseudomonas sp. ATCC 21439 (Obligate); assay: as above; type: cell-based; conditions: methanol-grown cells
Experimental: as §1, §2, §3

[3] = test system: secondary alcohol dehydrogenase (SADH), cell-free soluble extract; assay: oxidation of sec-alcohols by cell-free soluble extracts; type: biochemical, Methylosinus trichosporium OB3b (NRRL B-11,196); conditions: for Oxidation Rate, sec-alcohol to corresponding ketone: soluble crude extract, grown on methanol
Experimental: (§4) To prepare the cell-free secondary alcohol dehydrogenase (SADH) system, the washed cells were disrupted with a Wave Energy Ultrasonic Oscillator, Model W201 (Wave Energy System, Inc., Newtown, Pa.) and centrifuged at 20,000×g. for 30 minutes. […] The enzyme activity was measured with a fluorescence spectrophotometer (Perkin Elmer, Model MPF 44A) by following the formation of reduced NAD (EX 340 nm, Em 460 nm). The formation of reduced NAD was also followed with an absorption spectrophotometer at 340 nm. The assay system (3 ml.) contained: potassium phosphate buffer pH 7.0; 150 μmol.; NAD 1 μmol.; a given amount of enzyme preparation; and secondary alcohol 10 μmol. The reaction was started by the addition of substrate. One unit of enzyme activity represents the reduction of one μmole NAD per minute. Protein concentrations were determined by the Lowry method (J. Biol. Chem., 193: 255-275 (1951)).
(§5) The experimental procedure for the tests reported in Table VIII were as follows: 1 mg protein of crude extract was added into a 0.5 ml. 0.05 M phosphate buffer (pH 7.0) in a 10-ml. vial. […] The reaction mixture was incubated at 30° C. on a water bath. A 3 μl sample was removed with a syringe at 15 min. of incubation and was assayed with g.l.c. Catalytic activity was also assayed by fluorescence spectrophotometry.

[4] = test system: secondary alcohol dehydrogenase (SADH), cell-free soluble extract; assay: as above; type: biochemical, Pseudomonas sp. CRL 75 (ATCC 21,439); conditions: for Oxidation Rate, sec-alcohol to corresponding ketone: soluble crude extract, grown on methanol
Experimental: as §4, §5

[5] = test system: Kloeckera sp. Strain A2 (NRRLY-11,420); assay: sec-alcohols to ketones by cell suspensions of yeasts; type: cell-based
[6] = test system: cell extracts (NAD+-dependent secondary alcohol dehydrogenase); assay: sec-alcohols to methyl ketones by cell extracts of yeasts, gas chromatography; type: biochemical, Candida utilis ATCC 26,387; conditions: grown on methanol
Experimental: The supernantant liquid was termed the crude extracts.
The reaction mixture, in a total of 3.0 ml., contained 50 mM phosphate buffer, pH 7.0, 20 μmole NAD^+, cell extracts (1 ml.).
The ketone product obtained from oxidation of sec-alcohols by cell extracts of organisms were estimated by flame ionization gas chromatography by using a stainless steel column (12 ft. by 1/8 in.) packed with 10% Carbowax 20 M on 80/100 chromosorb w column (Perkin Elmer Corp., Norwalk, Conn.). The column temperature was maintained isothermally at 130° C. and the carrier gas flow was 30 ml. of helium per min. […] The protein content of cell-suspensions was determined by the Lowry et al. method.
NRRL Y-11,328 Torulopsis sp.

[7] = test system: cell extracts (NAD+-dependent secondary alcohol dehydrogenase); assay: as above; type: biochemical, Hansenula polymorpha ATCC 26,012; conditions: grown on methanol
[8] = test system: cell extracts (NAD+-dependent secondary alcohol dehydrogenase); assay: as above; type: biochemical, Pichia sp. NRRL-Y-11,328; conditions: grown on methanol

SMILES | Conversion Rates, sec-alcohol to corresponding ketone [1] | Conversion Rates, sec-alcohol to corresponding ketone [2] | Oxidation Rate, sec-alcohol to corresponding ketone [3] | Oxidation Rate, sec-alcohol to corresponding ketone [4] | Conversion Rate, sec-alcohol to corresponding ketone ([5]; Growth Substrate Ethanol) | Conversion Rate, sec-alcohol to corresponding ketone ([5]; Growth Substrate Methanol) | Conversion Rate, sec-alcohol to corresponding ketone ([5]; Growth Substrate Methylamine) | Conversion Rate, sec-alcohol to corresponding ketone ([5]; Growth Substrate Methylformate) | Conversion Rate, sec-alcohol to corresponding ketone ([5]; Growth Substrate Propylamine) | Conversion Rate, sec-alcohol to methyl ketone [6] | Conversion Rate, sec-alcohol to methyl ketone [7] | Conversion Rate, sec-alcohol to methyl ketone [8] | Conversion Rate, 2-butanol to 2-butanone ([3]; Growth Substrate CH3 NH2) | Conversion Rate, 2-butanol to 2-butanone ([3]; Growth Substrate CH3 OH) | Conversion Rate, 2-butanol to 2-butanone ([3]; Growth Substrate CH4) | Conversion Rate, 2-butanol to 2-butanone ([3]; Growth Substrate HCOOCH3) | Conversion Rate, 2-butanol to 2-butanone ([4]; Growth Substrate CH3 OH)
CCCC(C)O (centres unmarked) [2-Pentanol, 2-pentanol] | 2.1 μmoles/hr/mg protein | 0.05 μmoles/hr/mg protein | 0.1 nmole/min/mg protein | 1.2 nmole/min/mg protein | 1.0 μmoles/hr/mg of protein | 1.2 μmoles/hr/mg of protein | 1.0 μmoles/hr/mg of protein | 1.2 μmoles/hr/mg of protein | 0.92 μmoles/hr/mg of protein | 0.82 μmoles/hr/mg Protein | 1.0 μmoles/hr/mg Protein | 1.2 μmoles/hr/mg Protein |  |  |  |  | 
CCC(C)O (centres unmarked) [2-Butanol, 2-butanol] | 3.5 μmoles/hr/mg protein | 4.7 μmoles/hr/mg protein | 2.4 nmole/min/mg protein | 25.0 nmole/min/mg protein | 5.7 μmoles/hr/mg of protein | 5.9 μmoles/hr/mg of protein | 5.4 μmoles/hr/mg of protein | 5.9 μmoles/hr/mg of protein | 4.2 μmoles/hr/mg of protein | 4.92 μmoles/hr/mg Protein | 5.2 μmoles/hr/mg Protein | 6.2 μmoles/hr/mg Protein | 2.5 nmoles/min/mg protein | 2.4 nmoles/min/mg protein | 4.5 nmoles/min/mg protein | 2.0 nmoles/min/mg protein | 25.0 nmoles/min/mg protein
CC(C)O [2-Propanol, 2-propanol] | 0.80 μmoles/hr/mg protein | 7.4 μmoles/hr/mg protein | 2.0 nmole/min/mg protein | 21.2 nmole/min/mg protein | 4.5 μmoles/hr/mg of protein | 4.8 μmoles/hr/mg of protein | 4.0 μmoles/hr/mg of protein | 4.9 μmoles/hr/mg of protein | 4.0 μmoles/hr/mg of protein | 4.5 μmoles/hr/mg Protein | 4.8 μmoles/hr/mg Protein | 5.5 μmoles/hr/mg Protein |  |  |  |  | 
CCCCC(C)O (centres unmarked) [2-Hexanol, 2-hexanol] | 0.80 μmoles/hr/mg protein | 0.03 μmoles/hr/mg protein | 0 nmole/min/mg protein | 0 nmole/min/mg protein | 0.12 μmoles/hr/mg of protein | 0.25 μmoles/hr/mg of protein | 0.10 μmoles/hr/mg of protein | 0.28 μmoles/hr/mg of protein | 0.11 μmoles/hr/mg of protein | 0.45 μmoles/hr/mg Protein | 0.51 μmoles/hr/mg Protein | 0.60 μmoles/hr/mg Protein |  |  |  |  | 
